pIC50: −log10 of the molar value. Blank lines part the entries; values can stand above or below the compound they belong to. The source made the active and inactive calls. No cut-off for these calls is given here.
Assays:
[1] = molecular target: T1, N-terminal Xaa-Pro-Lys N-methyltransferase 1 (Homo sapiens, UniProt Q9BV86); assay: Inhibition of recombinant human N-terminal His6-tagged NTMT1 (1 to 222 residues) expressed in Escherichia coli BL21-CodonPlus(DE3)-RIL using GPKRIA peptide and SAM as substrate pre-incubated for 10 mins in presence of SAM followed by substrate addition by SAHH coupled fluorescence assay
T1 sequence (Q9BV86 whole entry): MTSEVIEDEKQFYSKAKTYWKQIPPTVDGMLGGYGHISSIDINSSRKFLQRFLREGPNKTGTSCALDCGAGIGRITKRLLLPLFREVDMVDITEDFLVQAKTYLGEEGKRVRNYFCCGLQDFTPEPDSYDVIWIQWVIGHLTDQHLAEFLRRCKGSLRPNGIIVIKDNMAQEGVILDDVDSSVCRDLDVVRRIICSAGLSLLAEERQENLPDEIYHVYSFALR

[2] = molecular target: T2, N-terminal Xaa-Pro-Lys N-methyltransferase 1 (Homo sapiens) (UniProt Q9BV86); assay: Inhibition of NTMT1 in human HCT116 cells assessed as decrease in me3-SPK level at 100 uM incubated for 3 days by Western blot analysis relative to control; type: cell-based; conditions: HCT-116, time 3.0 day
T2 sequence (whole entry): T1 sequence (Q9BV86 whole entry)

[3] = molecular target: T2, N-terminal Xaa-Pro-Lys N-methyltransferase 1 (Homo sapiens); assay: Inhibition of NTMT1 in human HCT116 cells assessed as decrease in me3-SPK level at 300 uM incubated for 3 days by Western blot analysis relative to control; type: cell-based; conditions: HCT-116, time 3.0 day
[4] = molecular target: T2, N-terminal Xaa-Pro-Lys N-methyltransferase 1 (Homo sapiens); assay: Inhibition of NTMT1 in human HCT116 cells assessed as decrease in me3-SPK level at 1 mM incubated for 3 days by Western blot analysis relative to control; type: cell-based; conditions: HCT-116, time 3.0 day
Homo sapiens [5] = organism: Homo sapiens; assay: Selectivity for recombinant human N-terminal His6-tagged NTMT1 (1 to 222 residues) expressed in Escherichia coli BL21-CodonPlus(DE3)-RIL over PRMT3 (unknown origin)
Homo sapiens [6] = organism: Homo sapiens; assay: Selectivity for recombinant human N-terminal His6-tagged NTMT1 (1 to 222 residues) expressed in Escherichia coli BL21-CodonPlus(DE3)-RIL over SAHH (unknown origin)
Homo sapiens [7] = organism: Homo sapiens; assay: Selectivity for recombinant human N-terminal His6-tagged NTMT1 (1 to 222 residues) expressed in Escherichia coli BL21-CodonPlus(DE3)-RIL over His-tagged SETD7 (unknown origin)
Homo sapiens [8] = organism: Homo sapiens; assay: Selectivity for recombinant human N-terminal His6-tagged NTMT1 (1 to 222 residues) expressed in Escherichia coli BL21-CodonPlus(DE3)-RIL over PRMT1 (unknown origin)
[9] = molecular target: T3, Histone-lysine N-methyltransferase SETD7 (Homo sapiens) (UniProt Q8WTS6); assay: Inhibition of His-tagged SETD7 (unknown origin) at 100 uM using H3-21 peptide as substrate preincubated for 10 mins in presence of SAM followed by substrate addition by SAHH-coupled fluorescence assay relative to control
T3 sequence (whole entry): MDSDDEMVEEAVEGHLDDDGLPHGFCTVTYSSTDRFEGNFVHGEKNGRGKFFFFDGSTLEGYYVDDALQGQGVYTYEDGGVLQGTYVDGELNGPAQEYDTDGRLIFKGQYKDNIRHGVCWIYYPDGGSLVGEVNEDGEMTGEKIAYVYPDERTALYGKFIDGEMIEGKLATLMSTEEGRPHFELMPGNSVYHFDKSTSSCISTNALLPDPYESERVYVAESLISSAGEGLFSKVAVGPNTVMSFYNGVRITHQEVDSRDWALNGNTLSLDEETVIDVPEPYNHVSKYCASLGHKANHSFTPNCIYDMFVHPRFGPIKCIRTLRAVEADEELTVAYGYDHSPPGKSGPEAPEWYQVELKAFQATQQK

[10] = Selectivity for recombinant human N-terminal His6-tagged NTMT1 (1 to 222 residues) expressed in Escherichia coli BL21-CodonPlus(DE3)-RIL over Trypanosoma brucei N-terminal His6-tagged PRMT7 expressed in Escherichia coli BL21-CodonPlus(DE3)-RIL
Trypsin = Trypsin (Homo sapiens, UniProt P07477+P07478+P35030); assay: Stability of compound assessed as trypsin (unknown origin) mediated compound hydrolysis at 10 uM incubated for 1 hr by MALDI-MS analysis; type: ADME, protein assay
Homo sapiens [11] = organism: Homo sapiens; assay: Selectivity for recombinant human N-terminal His6-tagged NTMT1 (1 to 222 residues) expressed in Escherichia coli BL21-CodonPlus(DE3)-RIL over human His-tagged G9a (913 to 1193 residues) expressed in Escherichia coli BL21-CodonPlus(DE3)-RIL
[12] = molecular target: T1, N-terminal Xaa-Pro-Lys N-methyltransferase 1; assay: Inhibition of NTMT1 in human HCT116 cells assessed as decrease in me3-SPK level incubated for 3 days by Western blot analysis; type: cell-based, HCT-116
Trypanosoma brucei = assay: Inhibition of Trypanosoma brucei N-terminal His6-tagged PRMT7 expressed in Escherichia coli BL21-CodonPlus(DE3)-RIL at 100 uM using H4-21 peptide as substrate preincubated for 10 mins in presence of SAM followed by substrate addition by SAHH-coupled fluorescence assay relative to control
[13] = molecular target: Protein arginine N-methyltransferase 1 (Homo sapiens) (UniProt Q99873); assay: Inhibition of PRMT1 (unknown origin) at 100 uM using H4-21 peptide as substrate preincubated for 10 mins in presence of SAM followed by substrate addition by SAHH-coupled fluorescence assay relative to control
Sequence of Protein arginine N-methyltransferase 1 (Homo sapiens) (Q99873 whole entry, looked up): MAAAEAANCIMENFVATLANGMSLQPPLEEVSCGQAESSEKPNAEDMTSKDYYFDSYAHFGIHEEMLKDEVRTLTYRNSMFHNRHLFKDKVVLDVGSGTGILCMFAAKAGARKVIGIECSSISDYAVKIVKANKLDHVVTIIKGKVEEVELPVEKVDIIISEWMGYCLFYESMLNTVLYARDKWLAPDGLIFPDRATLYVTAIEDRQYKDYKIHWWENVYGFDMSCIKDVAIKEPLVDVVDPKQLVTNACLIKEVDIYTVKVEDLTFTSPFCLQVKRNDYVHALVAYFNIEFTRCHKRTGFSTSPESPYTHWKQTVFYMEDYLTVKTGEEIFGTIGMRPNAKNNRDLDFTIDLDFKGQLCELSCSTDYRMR

[14] = molecular target: Protein arginine N-methyltransferase 3 (Homo sapiens) (UniProt O60678); assay: Inhibition of PRMT3 (unknown origin) at 100 uM relative to control
Sequence of Protein arginine N-methyltransferase 3 (Homo sapiens) (O60678 2-531 limits assumed): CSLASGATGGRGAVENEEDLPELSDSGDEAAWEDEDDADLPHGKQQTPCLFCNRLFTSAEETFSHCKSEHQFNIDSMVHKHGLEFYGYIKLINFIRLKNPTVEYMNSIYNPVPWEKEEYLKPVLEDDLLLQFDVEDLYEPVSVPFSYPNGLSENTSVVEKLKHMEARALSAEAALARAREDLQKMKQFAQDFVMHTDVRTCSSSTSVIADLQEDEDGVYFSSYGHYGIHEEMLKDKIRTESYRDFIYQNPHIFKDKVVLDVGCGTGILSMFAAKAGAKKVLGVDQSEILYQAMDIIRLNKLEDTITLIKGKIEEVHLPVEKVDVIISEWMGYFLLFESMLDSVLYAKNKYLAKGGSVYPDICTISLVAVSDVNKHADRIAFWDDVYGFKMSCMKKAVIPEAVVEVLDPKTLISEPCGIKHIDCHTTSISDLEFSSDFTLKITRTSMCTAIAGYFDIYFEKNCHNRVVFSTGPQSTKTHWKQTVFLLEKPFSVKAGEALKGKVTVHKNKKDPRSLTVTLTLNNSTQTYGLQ

[15] = molecular target: Adenosylhomocysteinase (Homo sapiens) (UniProt P23526); assay: Inhibition of SAHH (unknown origin) at 100 uM relative to control
Sequence of Adenosylhomocysteinase (Homo sapiens) (P23526 2-432 limits assumed): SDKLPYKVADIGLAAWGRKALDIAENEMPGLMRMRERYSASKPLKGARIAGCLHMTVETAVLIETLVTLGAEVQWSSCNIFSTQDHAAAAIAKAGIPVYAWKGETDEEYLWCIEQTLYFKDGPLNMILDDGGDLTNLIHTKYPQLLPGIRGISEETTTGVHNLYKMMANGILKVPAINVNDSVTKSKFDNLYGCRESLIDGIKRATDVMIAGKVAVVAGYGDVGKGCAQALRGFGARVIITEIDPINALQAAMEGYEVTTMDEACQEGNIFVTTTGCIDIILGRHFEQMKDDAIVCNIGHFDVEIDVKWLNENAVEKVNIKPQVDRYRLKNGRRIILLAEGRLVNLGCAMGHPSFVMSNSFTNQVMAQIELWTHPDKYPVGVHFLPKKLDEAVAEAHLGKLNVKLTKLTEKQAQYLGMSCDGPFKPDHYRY

[16] = molecular target: T2, N-terminal Xaa-Pro-Lys N-methyltransferase 1 (Homo sapiens); assay: Non-competitive inhibition of recombinant human N-terminal His6-tagged NTMT1 (1 to 222 residues) expressed in Escherichia coli BL21-CodonPlus(DE3)-RIL using GPKRIA peptide and varying concentration of SAM as substrate pre-incubated for 10 mins in presence of SAM followed by fixed concentration of substrate addition and measured for 15 mins by SAHH coupled fluorescence assay; conditions: time 25.0 min
[17] = molecular target: T4, Histone-lysine N-methyltransferase EHMT2 (Homo sapiens) (UniProt Q96KQ7); assay: Inhibition of human His-tagged G9a (913 to 1193 residues) expressed in Escherichia coli BL21-CodonPlus(DE3)-RIL at 100 uM using H3-21 peptide as substrate preincubated for 10 mins in presence of SAM followed by substrate addition by SAHH-coupled fluorescence assay relative to control
T4 sequence (whole entry): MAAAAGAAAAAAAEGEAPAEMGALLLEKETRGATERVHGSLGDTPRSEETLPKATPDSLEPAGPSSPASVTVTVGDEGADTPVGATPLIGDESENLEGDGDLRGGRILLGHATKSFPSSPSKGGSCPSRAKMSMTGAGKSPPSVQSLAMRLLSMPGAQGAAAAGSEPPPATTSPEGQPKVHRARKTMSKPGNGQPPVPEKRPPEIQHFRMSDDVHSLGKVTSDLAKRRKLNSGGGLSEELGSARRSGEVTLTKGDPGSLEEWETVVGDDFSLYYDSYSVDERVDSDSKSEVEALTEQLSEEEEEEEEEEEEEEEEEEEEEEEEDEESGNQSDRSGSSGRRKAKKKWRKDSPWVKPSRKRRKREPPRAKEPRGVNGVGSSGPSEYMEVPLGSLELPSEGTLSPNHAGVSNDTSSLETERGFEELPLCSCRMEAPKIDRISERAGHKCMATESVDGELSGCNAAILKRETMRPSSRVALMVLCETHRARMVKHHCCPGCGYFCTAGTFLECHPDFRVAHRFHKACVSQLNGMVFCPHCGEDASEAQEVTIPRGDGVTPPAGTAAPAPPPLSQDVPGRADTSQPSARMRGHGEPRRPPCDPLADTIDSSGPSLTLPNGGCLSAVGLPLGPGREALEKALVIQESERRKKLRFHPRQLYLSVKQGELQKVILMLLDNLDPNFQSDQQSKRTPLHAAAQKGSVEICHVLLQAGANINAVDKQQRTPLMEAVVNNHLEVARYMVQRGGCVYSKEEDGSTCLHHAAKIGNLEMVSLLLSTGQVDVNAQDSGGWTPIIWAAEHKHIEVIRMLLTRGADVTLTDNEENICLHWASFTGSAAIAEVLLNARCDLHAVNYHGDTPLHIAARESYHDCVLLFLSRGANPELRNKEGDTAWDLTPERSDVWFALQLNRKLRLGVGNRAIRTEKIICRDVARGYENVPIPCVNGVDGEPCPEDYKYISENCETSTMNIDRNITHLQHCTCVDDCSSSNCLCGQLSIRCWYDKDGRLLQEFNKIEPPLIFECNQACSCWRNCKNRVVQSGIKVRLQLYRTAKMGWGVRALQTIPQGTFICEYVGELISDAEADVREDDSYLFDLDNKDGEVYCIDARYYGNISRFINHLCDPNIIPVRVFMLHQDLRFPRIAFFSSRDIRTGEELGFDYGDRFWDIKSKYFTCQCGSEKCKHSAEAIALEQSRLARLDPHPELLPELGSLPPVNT

Compound: NCCCC[C@H](NC(=O)[C@@H]1CCCN1C(=O)Cc1cccc2ccccc12)C(=O)Nc1cccc(C(N)=O)c1
pIC50 [1]: 6.89
inhibition [2]: 10%
inhibition [3]: 57%
inhibition [4]: 90%

Compound: CN(C(=O)[C@H](CCCCN)NC(=O)[C@@H]1CCCN1C(=O)Cc1cccc2ccccc12)[C@@H](CCCCN)C(N)=O
Stabilty (Trypsin): Stable
pIC50 [1]: 6.33
inhibition [2]: 0%
inhibition [3]: 48%
inhibition [4]: 100%

Further lines, results first:

pIC50 [1]: 6.01
inhibition [2]: 0%
inhibition [3]: 1%
inhibition [4]: 47%
Compound: NCCCC[C@H](NC(=O)[C@@H]1CCCN1C(=O)Cc1cccc2ccccc12)C(=O)Nc1cccc2ccccc12

Selectivity ratio (Homo sapiens [5]): > 1000
Selectivity ratio (Homo sapiens [6]): > 1000
Selectivity ratio (Homo sapiens [7]): > 1000
Selectivity ratio (Homo sapiens [8]): > 1000
inhibition [9]: < 50%
Selectivity ratio [10]: > 1000
Stabilty (Trypsin): Unstable
Selectivity ratio (Homo sapiens [11]): > 1000
pIC50 [12]: 3.00
inhibition (Trypanosoma brucei): < 50%
inhibition [13]: < 50%
pIC50 [1]: 7.00
inhibition [14]: < 50%
inhibition [15]: < 50%
inhibition [2]: 3%
inhibition [3]: 10%
inhibition [4]: 52%
inhibition [16]: Active
inhibition [17]: < 50%
Compound: N=C(N)NCCC[C@H](NC(=O)[C@H](CCCCN)NC(=O)[C@@H]1CCCN1C(=O)Cc1cccc2ccccc12)C(N)=O

Stabilty (Trypsin): Stable
Compound: CN(C(=O)[C@H](CCCCN)NC(=O)[C@@H]1CCCN1C(=O)Cc1cccc2ccccc12)[C@@H](CCCNC(=N)N)C(N)=O

Source: ChEMBL document CHEMBL4680379, “Structure-based Discovery of Cell-Potent Peptidomimetic Inhibitors for Protein N-Terminal Methyltransferase 1” (ACS Med Chem Lett, 2021)
